Measured values published in US20240133877A1, “PRODUCTS AND METHODS FOR MONITORING ADHERENCE TO NUCLEOSIDE REVERSE TRANSCRIPTASE INHIBITOR THERAPY” (priority 2017, published 2024).

How the values were obtained:
pAb 313 = test: Cross reactivity of compounds spiked in buffer with pAb 313; type: binding, rabbit; conditions: compound spiked in buffer
Protocol: (§1) To identify which compounds were causing cross reactivity, potentially cross-reactive compounds (compounds with similar chemical structure to TFV) were spiked in buffer and tested with the pAbs. We tested 11 compounds, and their percent cross reactivity was calculated for each of the substances in Table 3 to each antibody.

pAb 312 = test: Cross reactivity of compounds spiked in buffer with pAb 312; type: binding, rabbit; conditions: compound spiked in buffer
Protocol: as §1

[1] = Urine and plasma TFV levels by LC-MS/MS in participants taking TAF; type: in vivo, human
Protocol: Blood and urine samples were collected from 3 cohorts of patients: (1) 10 HIV positive participants with suppressed virus on a TAF-based regimen, (2) 10 HIV- participants administered 1 dose of FTC/TAF followed by urine and plasma sampling for 7 days starting 1-3 hours post-dose, and (3) 10 HIV- participants administered 7 daily doses of FTC/TAF followed by urine and plasma sampling for 10 days starting 1-3 hours after the last dose. Samples were analyzed using liquid chromatography-tandem mass spectrometry (LC-MS/MS) with high sensitivity and specificity for TFV. Samples from cohort 2 were compared to a historical cohort administered one dose of FTC/TD F.

[2] = HIV-positive participants on TAF-based regimen (Cohort 1)

SMILES	Cross Reactivity of 313 (vs TFV standard) (pAb 313)	Cross Reactivity of 312 (vs TFV standard) (pAb 312)	other results
Nc1ncnc2c1ncn2CCOCP(=O)(O)O [Adefovir]	Reactive (0.1%)	Reactive (0.1%)	
CNc1ncnc2c1ncn2[C@@H]1O[C@H](COP(=O)(O)O)[C@@H](O)[C@H]1O [N6 Methyladenosine 5′ Monophosphate]	None	Reactive (0.1%)	
Nc1ncnc2c1ncn2[C@@H]1O[C@H](COP(=O)([O-])OP(=O)([O-])OP(=O)(O)O)[C@@H](O)[C@H]1O.[Na+].[Na+] [Adenosine 5′ Triphosphate Disodium]	None	None	
Nc1nc2c(ncn2[C@@H]2O[C@H](COP(=O)([O-])[O-])[C@@H](O)[C@H]2O)c(=O)[nH]1.[Na+].[Na+] [Guanosine 5′ Monophosphate Disodium]	None	None	
Nc1ncnc2c1ncn2[C@H]1C[C@H](O)[C@@H](COP(=O)(O)OP(=O)(O)OP(=O)(O)O)O1 [2′ Deoxyadenosine 5′ Triphosphate]	None	None	
C[C@H](Cn1cnc2c(N)ncnc21)OCP(=O)(O)O [TFV, tenofovir]			urine TFV concentration ([1]; 7 consecutive doses FTC/TAF, 1-3 hours after discontinuation of dosing): > 1000 ng/mL; urine TFV level ([1]; 7 consecutive doses FTC/TAF, up to 7 days post discontinuation, in 8 out of 10 participants): > 100 ng/mL; TFV concentration higher in urine than plasma ([1]; HIV-positive participants on TAF-based regimen): 2 logs; plasma TFV concentration [1, 2]: 10 ng/mL; urine TFV concentration [1, 2]: 1000 ng/mL; plasma TFV concentration ([1]; both HIV-negative cohorts (FTC/TAF), all time points): ≤ 10 ng/mL; concentration at 144 h ([1]; human, urine, oral, single dose FTC/TAF, for 6 days, in 8 of 10 participants, read-out: urine TFV concentration remaining): > 100 ng/mL; persistence of TFV in urine at detectable concentrations ([1]; patients taking FTC/TAF): at least 7 days; urine TFV concentrations after FTC/TAF versus historical cohort administered FTC/TDF ([1]; single dose): comparable; urine TFV concentration ([1]; single dose FTC/TAF, HIV- subjects, 1-3 hours post-dose): 100 to 1000 ng/mL
CNc1ncnc2c1ncn2[C@@H]1O[C@H](CO)[C@@H](O)[C@H]1O [N6 Methyladenosine]	None	None	
Nc1ncnc2c1ncn2[C@@H]1O[C@H](COP(=O)(O)O)[C@@H](O)[C@H]1O.O [Adenosine 5′ Monophosphate Monohydrate]	None	None	
Nc1ccn(C[C@@H](CO)OCP(=O)(O)O)c(=O)n1 [Cidofovir Hydrate]	Reactive (5%)	None	
Nc1ncnc2c1ncn2[C@@H]1O[C@H](CO)[C@@H](OP(=O)(O)O)[C@H]1O [Adenosine 3′ Monophosphate]	Reactive (0.1%)	Reactive (0.1%)	
Nc1ncnc2c1ncn2[C@@H]1O[C@H](CO)[C@@H](O)[C@H]1O [Adenosine]	Reactive (0.1%)	None	
Nc1nc2c(ncn2[C@H]2C[C@H](O)[C@@H](COP(=O)(O)OP(=O)(O)OP(=O)(O)O)O2)c(=O)[nH]1 [2′Deoxyguanosine 5′ Triphosphate]	None	None	
